According to US20250186566A1, “CELL-BASED VACCINES” (Arkea Bio Corp., priority 2023, published 2025):
Like-named read-outs stand apart in the source and are kept apart here.

Key:
cattle = details: cited from earlier work
CH4 production = details: cited from earlier work
[1] = 3NOP volatility (mass loss open to air); assay type: physicochemical; details: 500 mg open to air, 18-24° C., 15-30% RH, 6 days
Experimental: 3NOP Volatility:500 mg of 3NOP in a 5 dram vial was left open to air at ˜18-24° C. at 15-30% RH over the course of 6 days. Average mass loss is ˜0.25% per day.

sheep = details: cited from earlier work
[2] = 3NOP pH and temperature stability (HPLC); assay type: physicochemical; details: 1-month, 4-30° C., pH 4-10
Experimental: 3NOP pH and Temperature Stability: Confirmed via HPLC over a 1-month time period at temperature between 4-30° C. and pH 4-10.

[3] = 3NOP to adsorbent ratio study; assay type: physicochemical; details: distilled water at 1% 3NOP loading, 24 hr
Experimental: Optimal loading of 3NOP onto adsorbents was determined by varying ratios of 3NOP to adsorbent. 3NOP and adsorbent were speed mixed at 2000 rpm for 1 min. at the following ratios by weight: 1:1.5, 1:2, 1:2.5. The adsorbed 3NOP powder mixture was then placed in distilled water at 1% 3NOP loading. The solution was allowed to equilibrate for 24 hr and then an aliquot was taken for HPLC to determine the reduction in 3NOP concentration.

[4] = system: Mbb. Ruminantium, Ms. Mazei, and Mm. mobile; details: cited from earlier work
[5] = Adsorbent study: binding affinity and adsorptive capacity for 3NOP (HPLC at 230 nm)
Excerpt: The solution was then placed in an ultrasonic bath for ˜4 hr and then allowed to equilibrate over 24 hr.

goats = details: 10 g/day/goat; cited from earlier work
rumen methanogens = details: cited from earlier work; for suppression of CH4: bacteriocins, in vitro
rumen Methanobrevibacter = details: 5.6 μmol/L, in vitro; cited from earlier work
[6] = dairy cows, 40-80 mg/kg feed DM
[7] = 0.2 g of adsorbent in 10 mL of 1% 3NOP/H2O, after 24 hr, Control 8.258
[8] = beef cattle, fed at […] of DM intake

Compound: CC(CO)[N+](=O)[O-] (stereo not drawn) [2-nitropropanol]
- lowering of CH4 production (cattle; steers): 37%

Compound: O=[N+]([O-])OCCCO [3-Nitrooxypropanol (NOP)]
- maximum methane suppression amount (CH4 production; 0.08 mg/g dry matter (2019)): 0.08 mg/g dry matter; 44%
- maximum methane suppression amount (CH4 production; 1.6 g, concentrate pellet): 23%
- maximum methane suppression amount (CH4 production; 1.6 g, roughage): 28%

Compound: O=[N+]([O-])OCCCO [3NOP, 3-Nitrooxypropanol]
- Average mass loss [1]: ~0.25 % per day
- decrease of CH4 production (sheep; 0.5 g/day): 29%
- degree of CH4 suppression (cattle; added to the rumen through rumen cannula, 0.50 or 2.5 g per cow daily): 7-10%
- decrease of CH4 yield (cattle; beef cattle, 2.0 g/day/cow): 59%
- persistence of inhibition (cattle; beef cattle, 2.0 g/day/cow): up to 112 days
- decrease of CH4 production (cattle; [6]): about 30%
- persistence of decrease (cattle; [6]): up to 84 days
- pH and temperature stability [2]: Confirmed
- Average Integrated Area of 3NOP in solution ([3]; 3NOP:Adsorbent 1:1.5): 2566.4
- Average Integrated Area of 3NOP in solution ([3]; 3NOP:Adsorbent 1:2): 2566.4
- Average Integrated Area of 3NOP in solution ([3]; 3NOP:Adsorbent 1:2.5): 2566.4

Compound: N=C(N)NCCC[C@H](N)C(=O)O [Arginine]
- Average Integrated Area of 3NOP in solution ([3]; 3NOP:Adsorbent 1:1.5): 2406.0
- Average Integrated Area of 3NOP in solution ([3]; 3NOP:Adsorbent 1:2): 2372.8
- Average Integrated Area of 3NOP in solution ([3]; 3NOP:Adsorbent 1:2.5): 2435.2

Compound: ClCBr [BCM, bromochloromethane]
- toxicity / residues (cattle; steers fed grain-based diets): no signs of toxicity or residues in meat

Compound: O=S(=O)(O)CCCBr [BPS, 3-bromopropanesulfonate]
- sensitivity of methanogens ([4]; up to 250 μmol/L in pure cultures): resistant

Compound: C[N+](C)(C)CC(=O)O [Betaine]
- 3NOP concentration [5, 7]: 7.202 mM

Compound: O=C([O-])CC(O)(CC(=O)[O-])C(=O)[O-].[Bi+3] [Bismuth Citrate]
- 3NOP concentration [5, 7]: 8.072 mM

Compound: O=S(=O)([O-])[O-].O=S(=O)([O-])[O-].O=S(=O)([O-])[O-].[Bi+3].[Bi+3] [Bismuth Sulfate]
- 3NOP concentration [5, 7]: 8.079 mM

Compound: O=C(O)/C=C/c1ccc(O)c(O)c1 [Caffeic acid]
- maximum suppression methane amount (CH4 production; 12 mM): 12 mM, Caffeic acid; 37.58%;

Compound: O=S(=O)([O-])[O-].[Cu+2] [Copper Sulfate]
- 3NOP concentration [5, 7]: 7.814 mM

Compound: N[C@@H](CCC(=O)O)C(=O)O [Glutamic acid]
- Average Integrated Area of 3NOP in solution ([3]; 3NOP:Adsorbent 1:1.5): 2445.9
- Average Integrated Area of 3NOP in solution ([3]; 3NOP:Adsorbent 1:2): 2452.5
- Average Integrated Area of 3NOP in solution ([3]; 3NOP:Adsorbent 1:2.5): 2446.3

Compound: NC(=O)CC[C@H](N)C(=O)O [Glutamine]
- 3NOP concentration [5, 7]: 7.588 mM

Compound: NCCCC[C@H](N)C(=O)O [Lysine]
- 3NOP concentration [5]: 18.583 mM
- Average Integrated Area of 3NOP in solution ([3]; 3NOP:Adsorbent 1:1.5): 2336.2
- Average Integrated Area of 3NOP in solution ([3]; 3NOP:Adsorbent 1:2): 2308.9
- Average Integrated Area of 3NOP in solution ([3]; 3NOP:Adsorbent 1:2.5): 2266.6

Compound: O=C(O)CC(O)C(=O)O (stereo not drawn) [Malate]
- decrease of CH4 production (cattle; [8]): 16%
- reduction of CH4 per unit of DM intake (cattle; [8]): 9%

Compound: O=[N+]([O-])CCO [NEOH]
- maximum methane suppression amount (CH4 production; 10 mmol/L): 10 mmol/L; 96.7% (NE), 96.7%

Compound: CC[N+](=O)[O-] [NE]
- maximum methane suppression amount (CH4 production; 10 mmol/L): 10 mmol/L; 96.7% (NE), 96.7%

Compound: CC(CO)[N+](=O)[O-] (stereo not drawn) [NPOH]
- maximum methane suppression amount (CH4 production; 10 mmol/L): (NEOH), 41.7% (NPOH)

Compound: O=[N+]([O-])O [Nitrate]
- maximum methane suppression amount (CH4 production; 5 mM (Liu et al., 2017)): 5 mM; 43.26% Liu et al., 2017)
- maximum methane suppression amount (CH4 production; 5 mmol/L (Wu et al., 2019)): 5 mmol/L: 32.92%
- maximum methane suppression amount (CH4 production; 20 mg/g dry matter (Alvarez-Hess et al. 2019)): 20 mg/g dry matter: 21%

Compound: ClC(Cl)Cl [chloroform]
- duration of inhibition of methanogenesis (cattle; drenching to cattle): up to 32 days

Compound: O=C(O)/C=C/C(=O)O [fumarate]
- decrease of CH4 production (goats): 11.9%
- decrease of CH4 production (rumen methanogens; 3.5 g/L, continuous fermenters with forages as a substrate): 38%

Compound: CC[C@H](C)C(=O)O[C@H]1C[C@@H](C)C=C2C=C[C@H](C)[C@H](CC[C@@H]3C[C@@H](O)CC(=O)O3)[C@H]21 [lovastatin]
- reduction of CH4 production (rumen methanogens; Rusitec, 150 mg/L): approximately 42%
- reduction of total CH4 production by rumen methanogens (rumen methanogens; extracted from fermented rice straw, 48 h in vitro incubation): ~28%

Compound: O=c1[nH]c(=O)c2nccnc2[nH]1 [lumazin, 2,4-pteridinedione]
- CH4 production by pure methanogen cultures ([4]; dose-dependent from 0.06 to 0.24 mmol/L): significantly decreased

Compound: CC[C@H](C)C(=O)O[C@H]1CCC=C2C=C[C@H](C)[C@H](CC[C@@H]3C[C@@H](O)CC(=O)O3)[C@H]21 [mevastatin]
- growth of three strains of rumen Methanobrevibacter (rumen Methanobrevibacter): inhibited the growth

Compound: CC[C@@]1([C@@H]2O[C@@H]([C@H]3O[C@@](O)(CO)[C@H](C)C[C@@H]3C)C[C@@H]2C)CC[C@H]([C@]2(C)CC[C@]3(C[C@H](O)[C@@H](C)[C@@H]([C@@H](C)[C@@H](OC)[C@H](C)C(=O)O)O3)O2)O1 [monensin]
- CH4 production by tropical cattle (cattle; 60 mg/day/cow): did not lower CH4 production
- CH4 suppression (cattle; 10-15 ppm): no CH4 suppression
- lowering of CH4 production (g/kg DM intake) (cattle; fed at 24-35 mg/kg diet): up to 10%
- decrease of CH4 production (cattle; tropical cattle, 250 mg/day/cow): about 30%

Compound: CC[N+](=O)[O-] [nitroethane]
- decrease of CH4 production (sheep; orally 24 mg/kg body weight daily for 5 days): up to 45%
- decrease of CH4 production (sheep; orally 72 mg/kg body weight daily for 5 days): ≤ 69%

Compound: O=C(O)/C=C/c1ccc(O)cc1 [p-coumaric acid]
- maximum suppression methane amount (CH4 production; 12 mM): p-coumaric acid; 28.33%

Compound: C#CC(=O)O [propynoic acid]
- lowering of CH4 production (rumen methanogens; 6 mmol/L): 67%
- lowering of CH4 production (rumen methanogens; 12 mmol/L): 78%

Compound: Oc1ccc(C=Cc2cc(O)cc(O)c2)cc1 [resveratrol]
- maximum suppression methane amount (CH4 production; 25 mg, high-concentrate diets): high-concentrate diets; 41%
- maximum suppression methane amount (CH4 production; 25 mg, high-forage diets): 25 mg, high-forage diets; 60%;

Compound: Bovicin HC5
- suppression of CH4 (rumen methanogens): 50%

Compound: Cyclodextrin
- 3NOP concentration [5, 7]: 7.676 mM

Compound: Lactobacillus plantarum
- maximum suppression methane amount (CH4 production; 5.3 lg cfu/g fresh weight, 72 h): Lactobacillus plantarum, 8.8 ml/g(72 h)

Compound: Nisin
- suppression of CH4 (rumen methanogens): up to 40%
